According to patent US20240109917A1 (ACTELION PHARMACEUTICALS LTD, priority 2020, published 2024):

Experiments:
[1] = target: His6-TEV-PDGFRβ (557-1016) (Homo sapiens (Human), UniProt P09619); test: PDGFRβ HTRF Assay; format: biochemical; details: read-out: PDGFR HTRF IC50
Procedure, shortened: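 HTRF KinEASE-TK readout (665/620 nm ratio) of TK-biotin substrate phosphorylation by His-tagged PDGFRβ kinase domain. Enzyme and inhibitor preincubated 30 min, then ATP/substrate added for 3 h at room temperature before 60 min EDTA quench/detection.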

VEGFR2, unphosphorylated = VEGFR2, unphosphorylated (Homo sapiens (Human), UniProt P35968); test: VEGFR ADP GLO Assay; format: biochemical
Chain of VEGFR2, unphosphorylated (P35968 20-1356): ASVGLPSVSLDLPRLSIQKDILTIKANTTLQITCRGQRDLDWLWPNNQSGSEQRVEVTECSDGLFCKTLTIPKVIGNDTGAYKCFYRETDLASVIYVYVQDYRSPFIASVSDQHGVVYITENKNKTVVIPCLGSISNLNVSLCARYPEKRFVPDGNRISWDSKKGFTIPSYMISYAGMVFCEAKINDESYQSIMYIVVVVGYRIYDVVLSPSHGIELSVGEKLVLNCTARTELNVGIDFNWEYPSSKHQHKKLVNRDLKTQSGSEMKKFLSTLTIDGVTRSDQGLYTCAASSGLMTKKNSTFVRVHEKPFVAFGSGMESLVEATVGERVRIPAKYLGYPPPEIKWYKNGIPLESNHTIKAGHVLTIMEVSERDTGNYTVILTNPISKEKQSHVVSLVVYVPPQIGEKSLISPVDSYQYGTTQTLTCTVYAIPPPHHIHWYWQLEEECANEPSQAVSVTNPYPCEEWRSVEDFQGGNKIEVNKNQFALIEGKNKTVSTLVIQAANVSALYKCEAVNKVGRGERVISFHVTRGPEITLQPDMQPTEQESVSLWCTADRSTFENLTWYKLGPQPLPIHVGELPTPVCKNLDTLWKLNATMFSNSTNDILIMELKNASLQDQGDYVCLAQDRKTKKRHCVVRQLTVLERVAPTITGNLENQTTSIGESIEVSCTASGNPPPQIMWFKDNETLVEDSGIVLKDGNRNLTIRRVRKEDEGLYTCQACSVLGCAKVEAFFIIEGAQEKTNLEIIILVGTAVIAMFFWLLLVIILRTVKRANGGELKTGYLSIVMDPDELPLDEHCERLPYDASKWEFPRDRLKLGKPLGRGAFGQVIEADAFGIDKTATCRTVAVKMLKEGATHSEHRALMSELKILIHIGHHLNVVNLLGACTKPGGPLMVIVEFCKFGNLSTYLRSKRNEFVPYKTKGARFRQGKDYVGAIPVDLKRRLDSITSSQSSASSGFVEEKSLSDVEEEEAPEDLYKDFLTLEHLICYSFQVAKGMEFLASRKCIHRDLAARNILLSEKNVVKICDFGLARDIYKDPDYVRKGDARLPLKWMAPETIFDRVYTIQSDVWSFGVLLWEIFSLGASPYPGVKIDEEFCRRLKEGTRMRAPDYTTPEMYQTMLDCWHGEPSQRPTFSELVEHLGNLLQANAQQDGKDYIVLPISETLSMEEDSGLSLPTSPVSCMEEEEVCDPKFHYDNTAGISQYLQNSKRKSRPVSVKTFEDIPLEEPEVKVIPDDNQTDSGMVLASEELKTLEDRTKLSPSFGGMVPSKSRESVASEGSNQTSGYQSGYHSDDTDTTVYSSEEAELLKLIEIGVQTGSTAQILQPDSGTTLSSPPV

Chain of His6-TEV-PDGFRβ (557-1016) (P09619 557-1016): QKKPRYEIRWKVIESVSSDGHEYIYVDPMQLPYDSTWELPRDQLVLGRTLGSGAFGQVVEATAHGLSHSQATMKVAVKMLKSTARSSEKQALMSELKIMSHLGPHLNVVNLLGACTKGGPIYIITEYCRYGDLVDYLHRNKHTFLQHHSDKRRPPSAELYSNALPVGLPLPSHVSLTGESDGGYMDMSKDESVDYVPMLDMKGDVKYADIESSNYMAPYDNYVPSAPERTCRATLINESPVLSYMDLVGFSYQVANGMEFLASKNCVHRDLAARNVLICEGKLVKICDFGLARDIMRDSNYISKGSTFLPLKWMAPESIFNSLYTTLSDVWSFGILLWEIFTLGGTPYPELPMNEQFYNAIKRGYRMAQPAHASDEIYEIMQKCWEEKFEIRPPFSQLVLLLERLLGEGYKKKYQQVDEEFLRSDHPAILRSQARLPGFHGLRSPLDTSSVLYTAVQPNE

SMILES	IC50 [1]	IC50 (VEGFR2, unphosphorylated)
Cc1ncc(NC(=O)OC2CN(C(C)(C)C)C2)cc1NC(=O)c1cnn2cc(-c3cnn(C)c3)sc12 [Example 252, 1-(tert-butyl)azetidin-3-yl (6-methyl-5-(2-(1-methyl-1H-pyrazol-4-yl)pyrazolo[5,1-b]thiazole-7-carboxamido)pyridin-3-yl)carbamate]	1.1 nM	> 7500 nM
Cc1cc(C(=O)NCCN2CCCC(O)C2)sc1NC(=O)c1cnn2cc(-c3cnn(C)c3)sc12 (stereo not shown) [Example 200, N-(5-((2-(3-hydroxypiperidin-1-yl)ethyl)carbamoyl)-3-methylthiophen-2-yl)-2-(1-methyl-1H-pyrazol-4-yl)pyrazolo[5,1-b]thiazole-7-carboxamide]	49 nM	> 7500 nM
Cc1ncc(NC(=O)OCC(C)N2CCCC2)cc1NC(=O)c1cnn2cc(-c3cnn(C)c3)sc12 (stereo not shown) [Example 248, 2-(pyrrolidin-1-yl)propyl (6-methyl-5-(2-(1-methyl-1H-pyrazol-4-yl)pyrazolo[5,1-b]thiazole-7-carboxamido)pyridin-3-yl)carbamate]	0.4 nM	> 7500 nM
Cc1cc(C(=O)NCCN2CCC(CO)CC2)sc1NC(=O)c1cnn2cc(-c3cnn(C)c3)sc12 [Example 193, N-(5-((2-(4-(hydroxymethyl)piperidin-1-yl)ethyl)carbamoyl)-3-methylthiophen-2-yl)-2-(1-methyl-1H-pyrazol-4-yl)pyrazolo[5,1-b]thiazole-7-carboxamide]	321 nM	> 7500 nM
Cc1cc(C(=O)NCCN2CCc3ccccc3C2)sc1NC(=O)c1cnn2cc(-c3cnn(C)c3)sc12 [Example 204, N-(5-((2-(3,4-dihydroisoquinolin-2 (1H)-yl)ethyl)carbamoyl)-3-methylthiophen-2-yl)-2-(1-methyl-1H-pyrazol-4-yl)pyrazolo[5,1-b]thiazole-7-carboxamide]	19.2 nM	> 7500 nM
Cc1cc(C(=O)NCCN(C)C2CCOCC2)sc1NC(=O)c1cnn2cc(-c3cnn(C)c3)sc12 [Example 192, 2-(1-methyl-1H-pyrazol-4-yl)-N-(3-methyl-5-((2-(methyl(tetrahydro-2H-pyran-4-yl)amino)ethyl)carbamoyl)thiophen-2-yl)pyrazolo[5,1-b]thiazole-7-carboxamide]	34.6 nM	> 7500 nM
Cc1ncc(NC(=O)CN2CCc3cnn(C)c3C2)cc1NC(=O)c1cnn2cc(-c3cnn(C)c3)sc12 [Example 17, 2-(1-methyl-1H-pyrazol-4-yl)-N-(2-methyl-5-(2-(1-methyl-4,5-dihydro-1H-pyrazolo[3,4-c]pyridin-6 (7H)-yl)acetamido)pyridin-3-yl)pyrazolo[5,1-b]thiazole-7-carboxamide]	0.5 nM	> 7500 nM
Cc1ncc(NC(=O)CN2CCC(F)(F)CC2)cc1NC(=O)c1cnn2cc(-c3cnn(C)c3)sc12 [Example 14, N-(5-(2-(4,4-difluoropiperidin-1-yl)acetamido)-2-methylpyridin-3-yl)-2-(1-methyl-1H-pyrazol-4-yl)pyrazolo[5,1-b]thiazole-7-carboxamide]	0.4 nM	> 7500 nM
Cc1ncc(C(=O)NCCN2CCCC23CCC3)cc1NC(=O)c1cnn2cc(-c3c(C)nn(C)c3C)sc12 [Example 214, N-(5-((2-(5-azaspiro[3.4]octan-5-yl)ethyl)carbamoyl)-2-methylpyridin-3-yl)-2-(1,3,5-trimethyl-1H-pyrazol-4-yl)pyrazolo[5,1-b]thiazole-7-carboxamide]	0.3 nM	> 7500 nM
Cn1cc(-c2cn3ncc(C(=O)Nc4sc(C(=O)NCCN5CCCC56CCC6)cc4C#N)c3s2)cn1 [Example 206, N-(5-((2-(5-azaspiro[3.4]octan-5-yl)ethyl)carbamoyl)-3-cyanothiophen-2-yl)-2-(1-methyl-1H-pyrazol-4-yl)pyrazolo[5,1-b]thiazole-7-carboxamide]	3550 nM	> 2500 nM
Cc1ncc(NC(=O)CN2CCN(C)CC2)cc1NC(=O)c1cnn2cc(-c3cnn(C)c3)sc12 [Example 232, 2-(1-methyl-1H-pyrazol-4-yl)-N-(2-methyl-5-(2-(4-methylpiperazin-1-yl)acetamido)pyridin-3-yl)pyrazolo[5,1-b]thiazole-7-carboxamide]	25.9 nM	> 7500 nM
Cc1ncc(C(=O)NCCN2CCCC2)cc1NC(=O)c1cnn2cc(-c3cnn(C)c3)sc12 [Example 219, 2-(1-Methyl-1H-pyrazol-4-yl)-N-(2-methyl-5-((2-(pyrrolidin-1-yl)ethyl)carbamoyl)pyridin-3-yl)pyrazolo[5,1-b]thiazole-7-carboxamide]	0.4 nM	> 7500 nM
CCc1cc(C(=O)NCCN2CCCC23CCC3)sc1NC(=O)c1cnn2cc(-c3cnn(C)c3)sc12 [Example 205, N-(5-((2-(5-azaspiro[3.4]octan-5-yl)ethyl)carbamoyl)-3-ethylthiophen-2-yl)-2-(1-methyl-1H-pyrazol-4-yl)pyrazolo[5,1-b]thiazole-7-carboxamide]	39.4 nM	> 7500 nM
Cc1ncc(C(=O)NCCN2CC3CCC2C3)cc1NC(=O)c1cnn2cc(-c3cnn(C)c3C)sc12 (stereo not shown) [Example 210, N-(5-((2-(2-azabicyclo[2.2.1]heptan-2-yl)ethyl)carbamoyl)-2-methylpyridin-3-yl)-2-(1,5-dimethyl-1H-pyrazol-4-yl)pyrazolo[5,1-b]thiazole-7-carboxamide]	0.3 nM	> 7500 nM
Cc1cc(C(=O)NCCN2CCCC2(C)C)sc1NC(=O)c1cnn2cc(-c3ccn(C)n3)sc12 [Example 188, N-(5-((2-(2,2-dimethylpyrrolidin-1-yl)ethyl)carbamoyl)-3-methylthiophen-2-yl)-2-(1-methyl-1H-pyrazol-3-yl)pyrazolo[5,1-b]thiazole-7-carboxamide]	9.5 nM	> 7500 nM
COc1ncccc1-c1cn2ncc(C(=O)Nc3cc(C(=O)NCCN4CCCC4)cnc3C)c2s1 [Example 229, 2-(2-Methoxypyridin-3-yl)-N-(2-methyl-5-((2-(pyrrolidin-1-yl)ethyl)carbamoyl)pyridin-3-yl)pyrazolo[5,1-b]thiazole-7-carboxamide]	0.2 nM	> 833 nM
Cc1ncc(NC(=O)OCCN2CC3CCC2C3)cc1NC(=O)c1cnn2cc(-c3cnn(C)c3)sc12 (stereo not shown) [Example 250, 2-(2-azabicyclo[2.2.1]heptan-2-yl)ethyl (6-methyl-5-(2-(1-methyl-1H-pyrazol-4-yl)pyrazolo[5,1-b]thiazole-7-carboxamido)pyridin-3-yl)carbamate]	1.4 nM	> 7500 nM
Cc1cc(C(=O)NCCN2CCCC2(C)C)sc1NC(=O)c1cnn2cc(-c3cncnc3)sc12 [Example 185, N-(5-((2-(2,2-dimethylpyrrolidin-1-yl)ethyl)carbamoyl)-3-methylthiophen-2-yl)-2-(pyrimidin-5-yl)pyrazolo[5,1-b]thiazole-7-carboxamide]	704 nM	> 7500 nM
Cc1ncc(C(=O)NCCN2CCCC2)cc1NC(=O)c1cnn2cc(-c3cnn(CCC(O)CO)c3)sc12 (stereo not shown) [Example 222, 2-(1-(3,4-Dihydroxybutyl)-1H-pyrazol-4-yl)-N-(2-methyl-5-((2-(pyrrolidin-1-yl)ethyl)carbamoyl)pyridin-3-yl)pyrazolo[5,1-b]thiazole-7-carboxamide]	0.7 nM	> 7500 nM
Cc1ncc(NC(=O)OCCN(C)C2CCCCC2)cc1NC(=O)c1cnn2cc(-c3cnn(C)c3)sc12 [Example 251, 2-(cyclohexyl(methyl)amino)ethyl (6-methyl-5-(2-(1-methyl-1H-pyrazol-4-yl)pyrazolo[5,1-b]thiazole-7-carboxamido)pyridin-3-yl)carbamate]	1.5 nM	> 7500 nM
Cc1ncc(C(=O)NC2CN(C(C)(C)C)C2)cc1NC(=O)c1cnn2cc(-c3cccc4c3cnn4C)sc12 [Example 238, N-(5-((1-(tert-butyl)azetidin-3-yl)carbamoyl)-2-methylpyridin-3-yl)-2-(1-methyl-1H-indazol-4-yl)pyrazolo[5,1-b]thiazole-7-carboxamide]	0.4 nM	> 2500 nM
Cc1cc(C(=O)NCCN2CCCC2(C)C)sc1NC(=O)c1cnn2cc(-c3ccncc3)sc12 [Example 187, N-(5-((2-(2,2-dimethylpyrrolidin-1-yl)ethyl)carbamoyl)-3-methylthiophen-2-yl)-2-(pyridin-4-yl)pyrazolo[5,1-b]thiazole-7-carboxamide]	27.7 nM	> 7500 nM
Cc1cc(C(=O)NCCN2CCC(C)(C)CC2)sc1NC(=O)c1cnn2cc(-c3cnn(C)c3)sc12 [Example 183, N-(5-((2-(4,4-dimethylpiperidin-1-yl)ethyl)carbamoyl)-3-methylthiophen-2-yl)-2-(1-methyl-1H-pyrazol-4-yl)pyrazolo[5,1-b]thiazole-7-carboxamide]	11.1 nM	> 7500 nM
Cc1cc(C(=O)NCCCN2CCCC2(C)C)sc1NC(=O)c1cnn2cc(-c3cnn(C)c3)sc12 [Example 201, N-(5-((3-(2,2-dimethylpyrrolidin-1-yl)propyl)carbamoyl)-3-methylthiophen-2-yl)-2-(1-methyl-1H-pyrazol-4-yl)pyrazolo[5,1-b]thiazole-7-carboxamide]	58.5 nM	> 7500 nM
Cc1cc(C(=O)NCCN2CCOCC23CC3)sc1NC(=O)c1cnn2cc(-c3cnn(C)c3)sc12 [Example 197, N-(5-((2-(7-oxa-4-azaspiro[2.5]octan-4-yl)ethyl)carbamoyl)-3-methylthiophen-2-yl)-2-(1-methyl-1H-pyrazol-4-yl)pyrazolo[5,1-b]thiazole-7-carboxamide]	11.5 nM	> 7500 nM
Cc1ncc(NC(=O)OCCN2CCCC2(C)C)cc1NC(=O)c1cnn2cc(-c3cnn(C)c3)sc12 [Example 247, 2-(2,2-dimethylpyrrolidin-1-yl)ethyl (6-methyl-5-(2-(1-methyl-1H-pyrazol-4-yl)pyrazolo[5,1-b]thiazole-7-carboxamido)pyridin-3-yl)carbamate]	0.6 nM	> 7500 nM
